Assay: Solubility of phenylephrine base in water and methanol (Table 2)
Assay type: physicochemical
Method: One skilled in the art can improvise modifications to the above procedure in several aspects. For example it is possible to use the racemic phenylephrine hydrochloride salt, suspend it in methanol and add the requisite amount of alkali to liberate the free base before adding the R-naproxen to it. Phenylephrine base is not soluble in water but may be rendered soluble at a temperature above 80° and higher dilution but at lower dilution in hot methanol. Suitable combination of solvent, dilution and temperature may be chosen depending on the size of input. (See Table 2 below). R-naproxen may be added as a solution in methanol or as a solid to keep a low solvent ratio enabling better recovery of the salt.

Solubility (Methanol, 25-30° C., 1 g in 10 mL): Not soluble | Solubility (Methanol, 25-30° C., 1 g in 30 mL): Not soluble | Solubility (Methanol, 25-30° C., 1 g in 100 mL): Soluble | Solubility (Methanol, 60-80° C., 1 g in 10 mL): Not soluble | Solubility (Methanol, 60-80° C., 1 g in 30 mL): Soluble | Solubility (Methanol, 60-80° C., 1 g in 100 mL): Soluble | Solubility (Water, 25-30° C., 1 g in 10 mL): Not soluble | Solubility (Water, 25-30° C., 1 g in 30 mL): Not soluble | Solubility (Water, 25-30° C., 1 g in 100 mL): Not soluble | Solubility (Water, 60-80° C., 1 g in 10 mL): Not soluble | Solubility (Water, 60-80° C., 1 g in 30 mL): Not soluble | Solubility (Water, 60-80° C., 1 g in 100 mL): Soluble | Solubility (Water, 100° C., 1 g in 10 mL): Not soluble | Solubility (Water, 100° C., 1 g in 30 mL): Soluble | Solubility (Water, 100° C., 1 g in 100 mL): Soluble | Solubility in water (water): not soluble
SMILES: CNCC(O)c1cccc(O)c1 (racemic) [Phenylephrine base, 1-(3-hydroxyphenyl)-2-methylamino ethanol]

Source: US8455692B2, “Process for resolution of 1-(3-hydroxyphenyl)-2-methylamino ethanol” (Divi's Laboratories, Ltd., priority 2010, dated 2013)
